Measured values taken from patent US20240166693A1, “METHODS AND COMPOUNDS FOR MODULATING MYOTONIC DYSTROPY 1” (Design Therapeutics, Inc., priority 2020, published 2024).

What follows are molecules tested on Myotonic Dystrophy 1 affected patient fibroblasts (Coriell GM04602; 1600 CTG repeats) (assay: DM1 foci reduction assay (CAG10-Cy3 FISH, average foci per nucleus)). Details: Homo sapiens, Fibroblast, 48 h, read-out: Foci Reduction in Fibroblast EC50, 48 h (nM).
Type: cell-based
Method in brief: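 Read-out is mean nuclear foci per well from CAG10-Cy3 FISH (5 nM probe, overnight 37 °C) with DAPI nuclei, 4 fields per well at 20×. Compounds ran 48 h in 8-point, 3-fold series topping at 3 μM on 1600-CTG GM04602 fibroblasts, alongside GM07492 wild-type cells.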

`CCN(CC)CCCC[C@H](NC(=O)[C@H](CC(C)C)NC(=O)[C@H](C)NC(=O)[C@H](Cc1ccccc1)NC(=O)c1ccc(C(C)(C)C)cc1)C(=O)N[C@@H](CO)C(=O)Nc1ccc(OCCOCCOCCOCCOCCNC(=O)CCNC(=O)c2nc(NC(=O)c3cc(NC(=O)CCNC(=O)c4nc(NC(=O)CCCNC(=O)c5cc(NC(=O)c6nc(NC(=O)CCNC(=O)c7cc(NC(=O)c8nccn8C)cn7C)cn6C)cn5C)cn4C)cn3C)cn2C)cc1` [Compound 177] and `CCN(CC)CCCC[C@H](NC(=O)[C@H](CC(C)C)NC(=O)[C@H](C)NC(=O)[C@H](Cc1ccccc1)NC(=O)c1ccc(C(C)(C)C)cc1)C(=O)N[C@@H](CO)C(=O)Nc1ccc(OCCOCCOCCNC(=O)CCNC(=O)c2nc(NC(=O)c3cc(NC(=O)CCNC(=O)c4nc(NC(=O)CCCNC(=O)c5cc(NC(=O)c6nc(NC(=O)CCNC(=O)c7cc(NC(=O)c8nccn8C)cn7C)cn6C)cn5C)cn4C)cn3C)cn2C)cc1` [Compound 178] cannot be ordered by EC50: under 100 nM for the first, under 100 nM for the second.

`CCN(CC)CCCC[C@H](NC(=O)[C@H](CC(C)C)NC(=O)[C@H](C)NC(=O)[C@H](Cc1ccccc1)NC(=O)c1ccc(C(C)(C)C)cc1)C(=O)N[C@@H](CO)C(=O)N1CCC(C#CC#CC2CCN(CCOCCOCCOCCNC(=O)CCNC(=O)c3nc(NC(=O)c4cc(NC(=O)CCNC(=O)c5nc(NC(=O)CCCNC(=O)c6cc(NC(=O)c7nc(NC(=O)CCNC(=O)c8cc(NC(=O)c9nccn9C)cn8C)cn7C)cn6C)cn5C)cn4C)cn3C)CC2)CC1` [Compound 180] and `CCN(CC)CCCC[C@H](NC(=O)[C@H](CC(C)C)NC(=O)[C@H](C)NC(=O)[C@H](Cc1ccccc1)NC(=O)c1ccc(C(C)(C)C)cc1)C(=O)N[C@@H](CO)C(=O)N1CCC(C#CC#CC2CCN(CCOCCNC(=O)CCNC(=O)c3nc(NC(=O)c4cc(NC(=O)CCNC(=O)c5nc(NC(=O)CCCNC(=O)c6cc(NC(=O)c7nc(NC(=O)CCNC(=O)c8cc(NC(=O)c9nccn9C)cn8C)cn7C)cn6C)cn5C)cn4C)cn3C)CC2)CC1` [Compound 181] cannot be ordered by EC50: under 100 nM for the first, under 100 nM for the second.

`CCN(CC)CCCC[C@H](NC(=O)[C@H](CC(C)C)NC(=O)[C@H](C)NC(=O)[C@H](Cc1ccccc1)NC(=O)c1ccc(C(C)(C)C)cc1)C(=O)N[C@@H](CO)C(=O)N1CCC(N2CCN(CCOCCOCCOCCOCCNC(=O)CCNC(=O)c3nc(NC(=O)c4cc(NC(=O)CCNC(=O)c5nc(NC(=O)CCCNC(=O)c6cc(NC(=O)c7nc(NC(=O)CCNC(=O)c8cc(NC(=O)c9nccn9C)cn8C)cn7C)cn6C)cn5C)cn4C)cn3C)CC2)CC1` [Compound 184] and `CCN(CC)CCCC[C@H](NC(=O)[C@H](CC(C)C)NC(=O)[C@H](C)NC(=O)[C@H](Cc1ccccc1)NC(=O)c1ccc(C(C)(C)C)cc1)C(=O)N[C@@H](CO)C(=O)NCCOCCOCCOCCOCCN1CCN(C2CCN(C(=O)CCNC(=O)c3nc(NC(=O)c4cc(NC(=O)CCNC(=O)c5nc(NC(=O)CCCNC(=O)c6cc(NC(=O)c7nc(NC(=O)CCNC(=O)c8cc(NC(=O)c9nccn9C)cn8C)cn7C)cn6C)cn5C)cn4C)cn3C)CC2)CC1` [Compound 186] cannot be ordered by EC50: over 500 nM for the first, over 500 nM for the second.

`CCN(CC)CCCC[C@H](NC(=O)[C@H](CC(C)C)NC(=O)[C@H](C)NC(=O)[C@H](Cc1ccccc1)NC(=O)c1ccc(C(C)(C)C)cc1)C(=O)N[C@@H](CO)C(=O)N1CCN(CCOCCOCCOCCOCCNC(=O)CCNC(=O)c2nc(NC(=O)c3cc(NC(=O)CCNC(=O)c4nc(NC(=O)CCCNC(=O)c5cc(NC(=O)c6nc(NC(=O)CCNC(=O)c7cc(NC(=O)c8nccn8C)cn7C)cn6C)cn5C)cn4C)cn3C)cn2C)CC1` [Compound 185] and `CCN(CC)CCCC[C@H](NC(=O)[C@H](CC(C)C)NC(=O)[C@H](C)NC(=O)[C@H](Cc1ccccc1)NC(=O)c1ccc(C(C)(C)C)cc1)C(=O)N[C@@H](CO)C(=O)NCCOCCOCCOCCOCCN1CCN(C(=O)CCNC(=O)c2nc(NC(=O)c3cc(NC(=O)CCNC(=O)c4nc(NC(=O)CCCNC(=O)c5cc(NC(=O)c6nc(NC(=O)CCNC(=O)c7cc(NC(=O)c8nccn8C)cn7C)cn6C)cn5C)cn4C)cn3C)cn2C)CC1` [Compound 187] fall in the same range of EC50: 100 to 500 nM for the first, 100 to 500 nM for the second.

Going from `CCN(CC)CCCC[C@H](NC(=O)[C@H](CC(C)C)NC(=O)[C@H](C)NC(=O)[C@H](Cc1ccccc1)NC(=O)c1ccc(C(C)(C)C)cc1)C(=O)N[C@@H](CO)C(=O)NCCOCCOCCOCCOCCOCCN(CCCCN=[N+]=[N-])C(=O)CCNC(=O)c1nc(NC(=O)c2cc(NC(=O)CCNC(=O)c3nc(NC(=O)CCCNC(=O)c4cc(NC(=O)c5nc(NC(=O)CCNC(=O)c6cc(NC(=O)c7nccn7C)cn6C)cn5C)cn4C)cn3C)cn2C)cn1C` [Compound 189] to `CCN(CC)CCCC[C@H](NC(=O)[C@H](CC(C)C)NC(=O)[C@H](C)NC(=O)[C@H](Cc1ccccc1)NC(=O)c1ccc(C(C)(C)C)cc1)C(=O)N[C@@H](CO)C(=O)NCCOCCOCCOCCOCCOCCNC(=O)CCNC(=O)c1cc(NC(=O)c2nc(NC(=O)CCNC(=O)c3nc(NC(=O)CCCNC(=O)c4cc(NC(=O)c5nc(NC(=O)c6cc(NC(=O)CCNC(=O)c7nccn7C)cn6C)cn5C)cn4C)cn3C)cn2C)cn1C` [Compound 285], the EC50 rises from under 100 nM to over 500 nM.

Same assay, conditions: Homo sapiens, Fibroblast; DM1 fibroblasts, 48 h treatment, 8-point dose response, 3 μM top dose; read-out: Foci Reduction in Fibroblast EC50, 48 h

`CCCCCCNc1nc(NC2CCN(CCOCCOCCOCCOCCOCCNC(=O)CCNC(=O)c3nc(NC(=O)c4cc(NC(=O)CCNC(=O)c5nc(NC(=O)CCCNC(=O)c6cc(NC(=O)c7nc(NC(=O)CCNC(=O)c8cc(NC(=O)c9nccn9C)cn8C)cn7C)cn6C)cn5C)cn4C)cn3C)CC2)c2cc(OC)c(OC)cc2n1` [Compound 190] and `CCCCCCNc1nc(NC2CCN(CCOCCOCCOCCOCCOCCOCCOCCOCCOCCOCCNC(=O)CCNC(=O)c3nc(NC(=O)c4cc(NC(=O)CCNC(=O)c5nc(NC(=O)CCCNC(=O)c6cc(NC(=O)c7nc(NC(=O)CCNC(=O)c8cc(NC(=O)c9nccn9C)cn8C)cn7C)cn6C)cn5C)cn4C)cn3C)CC2)c2cc(OC)c(OC)cc2n1` [Compound 191] cannot be ordered by EC50: over 500 nM for the first, over 500 nM for the second.

`COc1cc2nc(N3CCCCC3)nc(NC3CCN(CCOCCOCCOCCOCCOCCNC(=O)CCNC(=O)c4nc(NC(=O)c5cc(NC(=O)CCNC(=O)c6nc(NC(=O)CCCNC(=O)c7cc(NC(=O)c8nc(NC(=O)CCNC(=O)c9cc(NC(=O)c%10nccn%10C)cn9C)cn8C)cn7C)cn6C)cn5C)cn4C)CC3)c2cc1OC` [Compound 192] and `COc1cc2nc(N3CCCCC3)nc(NC3CCN(CCOCCOCCOCCOCCOCCOCCOCCOCCOCCOCCNC(=O)CCNC(=O)c4nc(NC(=O)c5cc(NC(=O)CCNC(=O)c6nc(NC(=O)CCCNC(=O)c7cc(NC(=O)c8nc(NC(=O)CCNC(=O)c9cc(NC(=O)c%10nccn%10C)cn9C)cn8C)cn7C)cn6C)cn5C)cn4C)CC3)c2cc1OC` [Compound 193] cannot be ordered by EC50: over 500 nM for the first, over 500 nM for the second.
